Measured values published in patent US11504367B2, “Compounds and methods for treating oxalate-related diseases” (OxaluRx, Inc., priority 2019, dated 2022).

Molecular target: recombinant full-length human hydroxyacid oxidase 1 (HAO1), the equivalents of hGOX (Homo sapiens (Human), UniProt Q9UJM8)
Experiment: In-vitro human glycolate oxidase (hGOX) assay (Amplex red fluorescence)
Format: biochemical
Details: 6 nM recombinant human GO, 85 μM glycolate, 10 min preincubation
Experimental: The in-vitro glycolate oxidase assay was performed using recombinant full-length human hydroxyacid oxidase 1 (HAO1), the equivalents of hGOX. […] Purified HAO1 was dissolved in assay buffer consisting of 10 mM NaCl, 110 mM KCl, 2 mM MgCl2, 50 mM HEPES (pH 7.4), and 0.01% Triton™ X-100.
The plates were incubated for 10 min at room temperature, at which point Amplex red reagent (50 μM) was added.
The fluorescence intensity signal was measured on a VariosKan LUX instrument using an excitation of 560 nm and an emission of 590 nm. The IC50 values were calculated using Graphpad Prism. The fluorescence signal of wells containing only DMSO was defined as 100% GO activity, while the fluorescence signal without the glycolate substrate was defined as 0% GO activity.

Chain of recombinant full-length human hydroxyacid oxidase 1 (HAO1), the equivalents of hGOX (Q9UJM8 whole entry): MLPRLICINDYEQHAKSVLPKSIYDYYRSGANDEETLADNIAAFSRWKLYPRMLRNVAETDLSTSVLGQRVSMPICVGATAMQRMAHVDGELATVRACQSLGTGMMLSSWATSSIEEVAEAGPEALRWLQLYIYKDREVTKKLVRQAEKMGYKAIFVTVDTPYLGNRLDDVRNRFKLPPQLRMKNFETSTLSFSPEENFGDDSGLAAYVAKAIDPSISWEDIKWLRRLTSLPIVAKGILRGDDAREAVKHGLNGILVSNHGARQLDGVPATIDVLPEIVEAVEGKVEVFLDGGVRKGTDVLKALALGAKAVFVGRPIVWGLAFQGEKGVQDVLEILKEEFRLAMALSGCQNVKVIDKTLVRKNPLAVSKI

Compound	IC50
N#Cc1cccc(C#Cc2cc(F)cc(Oc3[nH]nnc3C(=O)O)c2)c1 [Example 277, 4-(3-((3-Cyanophenyl)ethynyl)-5-fluorophenoxy)-1H-1,2,3-triazole-5-carboxylic Acid]	2 nM
O=C(O)c1nn[nH]c1Oc1cccc(C#Cc2ccc(Cl)cc2)c1 [Example 292, 5-(3-(2-(4-Chlorophenyl)ethynyl)phenoxy)-1H-1,2,3-triazole-4-carboxylic Acid]	2 nM
CS(=O)(=O)c1ccc(Oc2[nH]nnc2C(=O)O)cc1C#Cc1ccccc1 [Example 149, 5-(4-(Methylsulfonyl)-3-(2-phenylethynyl)phenoxy)-1H-1,2,3-triazole-4-carboxylic Acid]	14 nM
O=C(O)c1nn[nH]c1Oc1ccc(C#Cc2ccccc2)cc1 [Example 138, 5-(4-(2-Phenylethynyl)phenoxy)-1H-1,2,3-triazole-4-carboxylic Acid]	7 nM
CS(=O)(=O)c1cccc(C#Cc2ccc(Oc3[nH]nnc3C(=O)O)cc2F)c1 [Example 273, 5-(3-Fluoro-4-(2-(3-(methylsulfonyl)phenyl)ethynyl)phenoxy)-1H-1,2,3-triazole-4-carboxylic Acid]	2 nM
O=C(O)c1nn[nH]c1Oc1ccc(C#Cc2ncccn2)cc1 [Example 336, 5-(4-(2-(Pyrimidin-2-yl)ethynyl)phenoxy)-1H-1,2,3-triazole-4-carboxylic Acid]	25 nM
CS(=O)(=O)c1cccc(C#Cc2cccc(Oc3[nH]nnc3C(=O)O)c2)c1 [Example 191, 5-(3-(2-(3-(Methylsulfonyl)phenyl)ethynyl)phenoxy)-1H-1,2,3-triazole-4-carboxylic Acid]	6 nM
O=C(O)c1nn[nH]c1Oc1ccc(C#Cc2cccc(Cl)c2)cc1 [Example 291, 5-(4-(2-(3-Chlorophenyl)ethynyl)phenoxy)-1H-1,2,3-triazole-4-carboxylic Acid]	0.3 nM
O=C(O)c1nn[nH]c1Oc1ccc(C#CC2CCCCC2)cc1 [Example 36, 5-(4-(2-Cyclohexylethynyl)phenoxy)-1H-1,2,3-triazole-4-carboxylic Acid]	9 nM
O=C(O)c1nonc1Oc1ccc(C#CCC2CC2)cc1 [Example 369, 4-(4-(3-Cyclopropylprop-1-ynyl)phenoxy)-1,2,5-oxadiazole-3-carboxylic Acid]	> 1000 nM
Cn1ncc2c(C#Cc3ccc(Oc4[nH]nnc4C(=O)O)cc3)cccc21 [Example 314, 5-(4-(2-(1-Methyl-1H-indazol-4-yl)ethynyl)phenoxy)-1H-1,2,3-triazole-4-carboxylic Acid]	3 nM
Cn1ncc2cccc(C#Cc3ccc(Oc4[nH]nnc4C(=O)O)cc3)c21 [Example 325, 5-(4-(2-(1-Methyl-1H-indazol-7-yl)ethynyl)phenoxy)-1H-1,2,3-triazole-4-carboxylic Acid]	2 nM
O=C(O)c1nn[nH]c1Oc1cccc(C#CC2CCCCC2)c1 [Example 37, 5-(3-(2-Cyclohexylethynyl)phenoxy)-1H-1,2,3-triazole-4-carboxylic Acid]	8 nM
N#Cc1ccc(C#Cc2cc(F)cc(Oc3[nH]nnc3C(=O)O)c2)cc1 [Example 276, 4-(3-((4-Cyanophenyl)ethynyl)-5-fluorophenoxy)-1H-1,2,3-triazole-5-carboxylic Acid]	3 nM
Cn1cc(C#Cc2ccc(Oc3[nH]nnc3C(=O)O)cc2)ccc1=O [Example 208, 4-(4-((1-Methyl-6-oxo-1,6-dihydropyridin-3-yl)ethynyl)phenoxy)-1H-1,2,3-triazole-5-carboxylic Acid]	2 nM
O=C(O)c1nn[nH]c1Oc1cccc(C#Cc2ccncc2)c1 [Example 313, 5-(3-(2-(Pyridin-4-yl)ethynyl)phenoxy)-1H-1,2,3-triazole-4-carboxylic Acid]	3 nM
O=C(O)c1nn[nH]c1Oc1cccc(C#Cc2ccc3cn[nH]c3c2)c1 [Example 330, 5-(3-(2-(1H-Indazol-6-yl)ethynyl)phenoxy)-1H-1,2,3-triazole-4-carboxylic Acid]	1 nM
O=C(O)c1nn[nH]c1Oc1ccc(C#Cc2cnccn2)cc1 [Example 337, 5-(4-(2-(Pyrazin-2-yl)ethynyl)phenoxy)-1H-1,2,3-triazole-4-carboxylic Acid]	7 nM
O=C(O)c1nn[nH]c1Oc1ccc(C#Cc2ccc3[nH]ncc3c2)cc1 [Example 108, 5-(4-(2-(1H-Indazol-5-yl)ethynyl)phenoxy)-1H-1,2,3-triazole-4-carboxylic Acid]	1 nM
N#CCCC#Cc1cccc(Oc2[nH]nnc2C(=O)O)c1 [Example 350, 5-(3-(4-Cyanobut-1-ynyl)phenoxy)-1H-1,2,3-triazole-4-carboxylic Acid]	10 nM
O=C(O)c1nn[nH]c1Cc1cccc(C#CCC2CC2)c1 [Example 365, 5-(3-(3-Cyclopropylprop-1-ynyl)benzyl)-1H-1,2,3-triazole-4-carboxylic Acid]	98 nM

Compound	IC50
O=C(O)c1nn[nH]c1Oc1ccc(Cl)c(C#Cc2ccccc2)c1 [Example 147, 5-(4-Chloro-3-(2-phenylethynyl)phenoxy)-1H-1,2,3-triazole-4-carboxylic Acid]	4 nM
O=C(O)c1nn[nH]c1Oc1ccc(C#Cc2ccc3cn[nH]c3c2)cc1 [Example 329, 5-(4-(2-(1H-Indazol-6-yl)ethynyl)phenoxy)-1H-1,2,3-triazole-4-carboxylic Acid]	2 nM
COc1ccc(Oc2[nH]nnc2C(=O)O)cc1C#Cc1ccccc1 [Example 264, 5-(4-Methoxy-3-(2-phenylethynyl)phenoxy)-1H-1,2,3-triazole-4-carboxylic Acid]	20 nM
O=C(O)c1nn[nH]c1Oc1cccc(C#Cc2ncccn2)c1 [Example 165, 5-(3-(2-(Pyrimidin-2-yl)ethynyl)phenoxy)-1H-1,2,3-triazole-4-carboxylic Acid]	6 nM
CCOC(=O)c1nn[nH]c1Oc1cccc(C#CCC(C)(C)C)c1 [Example 371, Ethyl 5-(3-(4,4-dimethylpent-1-ynyl)phenoxy)-1H-1,2,3-triazole-4-carboxylate]	> 1000 nM
Cn1ccnc1C#Cc1cccc(Oc2[nH]nnc2C(=O)O)c1 [Example 334, 5-(3-(2-(1-Methyl-1H-imidazol-2-yl)ethynyl)phenoxy)-1H-1,2,3-triazole-4-carboxylic Acid]	5 nM
Cn1ncc2cc(C#Cc3ccc(Oc4[nH]nnc4C(=O)O)cc3)ccc21 [Example 316, 5-(4-(2-(1-Methyl-1H-indazol-5-yl)ethynyl)phenoxy)-1H-1,2,3-triazole-4-carboxylic Acid]	2 nM
O=C(O)c1nn[nH]c1Oc1ccc(C#Cc2ccccn2)cc1 [Example 308, 5-(4-(2-(Pyridin-2-yl)ethynyl)phenoxy)-1H-1,2,3-triazole-4-carboxylic Acid]	10 nM
O=C(O)c1nn[nH]c1Oc1ccc(C#Cc2ccncc2)cc1 [Example 310, 5-(4-(2-(Pyridin-4-yl)ethynyl)phenoxy)-1H-1,2,3-triazole-4-carboxylic Acid]	4 nM
CCOC(=O)c1c(Oc2cccc(C#CCC3CC3)c2)n[nH]c1C [Example 358, Ethyl 3-(3-(3-cyclopropylprop-1-ynyl)phenoxy)-5-methyl-1H-pyrazole-4-carboxylate]	> 1000 nM
COc1cc(C#Cc2cccc(Oc3[nH]nnc3C(=O)O)c2)ccn1 [Example 285, 5-(3-(2-(2-Methoxypyridin-4-yl)ethynyl)phenoxy)-1H-1,2,3-triazole-4-carboxylic Acid]	3 nM
Cc1ccc(Oc2[nH]nnc2C(=O)O)cc1C#Cc1ccccc1 [Example 262, 5-(4-Methyl-3-(2-phenylethynyl)phenoxy)-1H-1,2,3-triazole-4-carboxylic Acid]	1 nM
O=C(O)c1nn[nH]c1Oc1ccc(C#Cc2cccnc2)cc1 [Example 309, 5-(4-(2-(Pyridin-3-yl)ethynyl)phenoxy)-1H-1,2,3-triazole-4-carboxylic Acid]	3 nM
CS(=O)(=O)c1cccc(C#Cc2cc(F)cc(Oc3[nH]nnc3C(=O)O)c2)c1 [Example 275, 5-(3-Fluoro-5-(2-(3-(methylsulfonyl)phenyl)ethynyl)phenoxy)-1H-1,2,3-triazole-4-carboxylic Acid]	3 nM
COc1cc(C#Cc2ccc(Oc3[nH]nnc3C(=O)O)cc2)ccn1 [Example 283, 5-(4-(2-(2-Methoxypyridin-4-yl)ethynyl)phenoxy)-1H-1,2,3-triazole-4-carboxylic Acid]	3 nM
CCOC(=O)c1nn[nH]c1Oc1cccc(C#CCC(C)(C)F)c1 [Example 377, Ethyl 5-(3-(4-fluoro-4-methylpent-1-ynyl)phenoxy)-1H-1,2,3-triazole-4-carboxylate]	> 1000 nM
O=C(O)c1nn[nH]c1Oc1ccc(C#Cc2ncc[nH]2)cc1 [Example 331, 5-(4-(2-(1H-Imidazol-2-yl)ethynyl)phenoxy)-1H-1,2,3-triazole-4-carboxylic Acid]	20 nM
O=C(O)c1nn[nH]c1Oc1cccc(C#CCc2ccccc2)c1 [Example 349, 5-(3-(3-Phenylprop-1-ynyl)phenoxy)-1H-1,2,3-triazole-4-carboxylic Acid]	5 nM
O=C(O)c1nn[nH]c1Oc1ccc(C#CCc2ccc(F)cc2)cc1 [Example 353, 5-(4-(3-(4-fluorophenyl)prop-1-ynyl)phenoxy)-1H-1,2,3-triazole-4-carboxylic Acid]	3 nM
O=C(O)c1nn[nH]c1Cc1ccc(C#CCC2CC2)cc1 [Example 364, 5-(4-(3-Cyclopropylprop-1-ynyl)benzyl)-1H-1,2,3-triazole-4-carboxylic Acid]	94 nM
O=C(O)c1nn[nH]c1Oc1cc(F)cc(C#Cc2ccccc2)c1 [Example 258, 5-(3-Fluoro-5-(2-phenylethynyl)phenoxy)-1H-1,2,3-triazole-4-carboxylic Acid]	2 nM
